# Columns and labels:
# [1] = tested on: integrin mediated tension in NIH/3T3 cells; experiment: Dose-dependent inhibition of integrin mediated tension quantified by MCR; type: cell-based; conditions: NIH/3T3 cells pretreated 15 min with blebbistatin (10 nm-10 mm as printed), 1 h on 12 pN duplexes
# Procedure: The non-muscle myosin II inhibitor blebbistatin, which diminishes myosin contractility and thus reduces forces transmitted by focal adhesions, was investigated. NIH/3T3 cells were pretreated with a range of blebbistatin concentrations (10 nm-[…]) for 15 min. The cells onto the surface were incubated with the 12 pN duplexes for 1 h, which was then followed by MCR readout. […] The MCR signal is a direct readout of integrin tension, measuring the dose-dependent dissipation of actomyosin contractile forces.
# Cells were incubated with the cRGDfK-labelled duplex surfaces in DMEM for 1 h to promote cell adhesion. Surfaces were then washed with 0.1×SSC. Subsequently, surfaces were incubated in 1× CutSmart® buffer (20 mM Tris-acetate, 10 mM Mg(OAc)2, 50 mM KOAc, 100 μg/mL BSA, pH 7.9) with 100 nM circular template and 1 U/μL T4 ligase at 37° C. for 2 h to ensure complete ligation. Then, 250 μM dNTPs and 0.1 U/μL Phi 29 polymerase were added to the solutions and mixed well. The surfaces were incubated at 37° C. for 90 min to allow for rolling circle amplification. […] Finally, the surface was incubated with 100 nM Cy3B-FISH probe in hybridization buffer (0.5 M NaCl, 20 mM Tris-HCl, 20 mM EDTA, and 0.01% Tween, pH=7.4) at 37° C. for 30 min, rinsed with three washes of 0.1×TNT/0.1% SDS and subjected to fluorescence imaging. […]
# NIH/3T3 cells = experiment: Brightfield imaging and F-actin staining of drug treated cells; type: cell-based
structure (smiles),measurement,setting,value
Cc1ccc2c(c1)C(=O)C1(O)CCN(c3ccccc3)C1=N2 (stereo not drawn) [blebbistatin],MCR signal,[1],dose-dependent relationship
same,F-actin staining,NIH/3T3 cells; highest blebbistatin doses,more disorganized and shorter actin filaments
same,cell shape by brightfield imaging,NIH/3T3 cells; increasing drug dose,cells become more rounded with increasing drug dose

# From patent publication US10900069B2, “Devices and methods useful for detecting mechanical forces of ligand receptor interactions” (Emory University, priority 2016, dated 2021)
